Among the data in patent publication US9790221B2, “Heteroaryl compounds as IRAK inhibitors and uses thereof” (Merck Patent GmbH, priority 2014, dated 2017) are IC50 values, retold here.

One test has as its target IRAK4 (Homo sapiens (Human), UniProt Q9NWZ3). Description: IRAK4 enzymatic assay. The class given is biochemical. In outline:
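Radiometric streptavidin FlashPlate read: 3 h, 30° C incubation of His-TEV-IRAK4 (20 ng/well), STK1-biotin substrate (300 nM) and ATP (2 μM, [^33P]-labelled) in Hepes pH 7.0, MgCl2 10 mM, MnCl2 5 mM. Compounds from 20 µM down to 1 nM, 2% DMSO controls; reaction quenched with EDTA.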

Test [1] addresses IRAK1 (His-TEV-IRAK1 (194-712)) (Homo sapiens (Human), UniProt P51617). Briefly: IRAK1 enzymatic assay. The class given is biochemical. The essentials: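 Compounds ([…] down to 1 nM) were incubated 3 h at 30° C with His-TEV-IRAK1 (194-712, 15 ng/well) and 1 μM [33P]-labelled ATP in 50 mM Hepes pH 7.0, 10 mM MgCl2. After EDTA stop and washing, the retained autophosphorylation signal was measured by scintillation in streptavidin-coated plates.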

Test [2] deals with TLR7 induced IL-6 secretion in human mononuclear cells (PBMC's). Briefly: TLR7 induced IL-6 in human PBMC's. The class given is cell-based. The following applies: Homo sapiens, PBMC, read-out: TLR7 induced IL-6 secretion in hPBMC's (IC50). Here is the method: TLR7 Induced IL-6 in Human PBMC's
Human PBMC assay was used as one of the functional assay a to monitor the activity of IRAK1 and IRAK4 small molecule inhibitors on TLR7 induced IL-6 secretion in human mononuclear cells (PBMC's). Human PBMCs were prepared from buffy coats (whole blood enriched with leukocytes and platelets) obtained from healthy volunteers used either fresh or frozen are plated in assay media (RPMI+2% P/S/L-glu+10% HI-FBS) and pre-treated with compounds in DMSO/media (range of concentrations from 25 uM to 0.4 nM) or controls (0.25% DMSO) for 30 minutes at 37° C. in assay media. Following pre-treatment with IRAK1 and IRAK4 inhibitors, PBMC's were stimulated with TLR7 specific ligand (2 uM) overnight (16-18 hrs) at 37° C. After incubation supernatant was transferred to 384 well PE AlphaPlate-384 (6005350) and IL-6 is quantified using Perkin Elmer IL-6 Alpha LISA kit (AL223C). Plates were read on an Envision® plate reader with Alpha Technology®.

Counter-ions that a name gives are not always drawn.

Sequence of IRAK4 (Q9NWZ3 whole entry): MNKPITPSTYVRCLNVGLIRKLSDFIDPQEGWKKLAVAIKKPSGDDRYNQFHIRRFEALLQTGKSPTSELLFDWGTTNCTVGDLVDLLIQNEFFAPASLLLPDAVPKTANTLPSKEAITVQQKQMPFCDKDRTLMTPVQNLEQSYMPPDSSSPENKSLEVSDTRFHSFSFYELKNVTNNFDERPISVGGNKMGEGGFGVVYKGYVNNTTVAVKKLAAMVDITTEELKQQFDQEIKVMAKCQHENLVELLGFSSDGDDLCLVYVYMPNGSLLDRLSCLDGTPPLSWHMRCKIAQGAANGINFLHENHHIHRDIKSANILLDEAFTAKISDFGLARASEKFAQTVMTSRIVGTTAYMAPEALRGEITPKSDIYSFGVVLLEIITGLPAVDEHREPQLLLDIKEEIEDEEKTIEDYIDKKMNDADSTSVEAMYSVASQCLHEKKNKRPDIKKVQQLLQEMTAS
Sequence of IRAK1 (His-TEV-IRAK1 (194-712)) (P51617 194-712): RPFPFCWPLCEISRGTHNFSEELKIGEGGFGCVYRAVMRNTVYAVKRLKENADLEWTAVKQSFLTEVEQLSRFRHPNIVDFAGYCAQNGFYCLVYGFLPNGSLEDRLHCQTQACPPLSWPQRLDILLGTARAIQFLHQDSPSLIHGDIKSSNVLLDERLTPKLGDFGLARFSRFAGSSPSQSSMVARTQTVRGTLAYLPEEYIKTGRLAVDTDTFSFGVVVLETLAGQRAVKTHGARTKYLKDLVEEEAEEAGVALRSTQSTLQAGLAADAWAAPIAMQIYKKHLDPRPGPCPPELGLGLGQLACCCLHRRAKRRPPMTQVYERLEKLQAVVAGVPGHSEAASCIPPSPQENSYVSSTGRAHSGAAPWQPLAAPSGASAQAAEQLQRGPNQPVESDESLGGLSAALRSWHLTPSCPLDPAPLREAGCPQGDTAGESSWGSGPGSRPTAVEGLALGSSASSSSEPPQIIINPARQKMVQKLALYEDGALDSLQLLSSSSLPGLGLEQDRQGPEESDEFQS

The IC50 is the midpoint of a concentration-inhibition curve. Consider `Cn1cc(-c2cccc(-c3ncc(-c4cnn(C)c4)c(N[C@H]4CCC[C@@H]4O)n3)c2)cn1` (racemic) [Example 94], for which the values for the half-inhibitory concentration (IC50) (against IRAK4; in test [1]; in test [2]) were below 0.1 µM, 0.1 to 1 µM and 1 to 5 µM, respectively.
For `Cn1cc(-c2cccc(-c3ncc(-c4ccn(C)n4)c(N[C@@H]4CC[C@H](N)C4)n3)c2)cn1` (racemic) [Example 107], the IC50 (against IRAK4; in test [1]; in test [2]) was 0.1 to 1 µM throughout.
With `Cn1cc(-c2cccc(-c3ncc(-c4cnn(C)c4)c(N[C@@H]4CC[C@H](N)C4)n3)c2)cn1` (racemic) [Example 108], the IC50 at IRAK4 was below 0.1 µM; in test [1] it was 0.1 to 1 µM; in test [2] it was 0.1 to 1 µM.
Regarding `Cn1cc(-c2cccc(-c3ncc(-c4cnn(C)c4)c(N[C@@H]4CNC[C@H]4O)n3)c2)cn1` (racemic) [Example 113], the IC50 on IRAK4 was below 0.1 µM; in test [1], 0.1 to 1 µM; in test [2], 1 to 5 µM.
Regarding `Cn1cc(-c2cccc(-c3ncc(-c4ccn(C)n4)c(N[C@@H]4CCC[C@@H](O)[C@H]4O)n3)c2)cn1` (racemic) [Example 131], the IC50 was below 0.1 µM on IRAK4, 1 to 5 µM in test [1] and 1 to 5 µM in test [2].
As to `Cn1cc(-c2cccc(-c3ncc(-c4cnn(C)c4)c(N[C@@H]4CCC[C@@H](O)[C@H]4O)n3)c2)cn1` (racemic) [Example 133, (1R,2S,3R)-3-{5-(1-Methyl-1H-pyrazol-4-yl)-2-[3-(1-methyl-1H-pyrazol-4-yl)-phenyl]-pyrimidin-4-ylamino}-cyclohexane-1,2-diol], the IC50 on IRAK4 was below 0.1 µM; in test [1], 0.1 to 1 µM; in test [2], 0.1 to 1 µM.
For `Cn1cc(-c2cccc(-c3ncc(-c4cnn(C)c4)c(O[C@@H]4CCC[C@@H](N)[C@@H]4O)n3)c2)cn1` (racemic) [Example 134, (1S,2R,6R)-2-Amino-6-{5-(1-methyl-1H-pyrazol-4-yl)-2-[3-(1-methyl-1H-pyrazol-4-yl)-phenyl]-pyrimidin-4-yloxy}-cyclohexanol], the IC50 (on IRAK4; in test [1]; in test [2]) was below 0.1 µM throughout.
With `Cn1cc(-c2cccc(-c3ncc(-c4cnn(C)c4)c(N[C@H]4CCC[C@@H](O)C4)n3)c2)cn1` (racemic) [Example 161], the IC50 is below 0.1 µM against IRAK4, below 0.1 µM in test [1] and 0.1 to 1 µM in test [2].
On to `Cn1cc(-c2cccc(-c3ncc(-c4cnn(C)c4)c(N[C@H]4CCC[C@H](O)C4)n3)c2)cn1` (racemic) [Example 162], for which the results for the IC50 (against IRAK4; in test [1]; in test [2]) were below 0.1 µM, 0.1 to 1 µM and 0.1 to 1 µM, respectively.
As for `Cn1cc(-c2cccc(-c3ncc(-c4cnn(C)c4)c(NC4CCC(O)C4)n3)c2)cn1` (racemic) [Example 167], the values for the IC50 (on IRAK4; in test [1]; in test [2]) were below 0.1 µM, 1 to 5 µM and 1 to 5 µM, respectively.
For `CN[C@H]1CCC[C@H](Nc2nc(-c3cccc(-c4cnn(C)c4)c3)ncc2-c2cnn(C)c2)[C@@H]1O` (racemic) [Example 281, (1R,2S,6S)-2-Methylamino-6-{5-(1-methyl-1-pyrazol-4-yl)-2-[3-(1-methyl-1H-pyrazol-4-yl)-phenyl]-pyrimidin-4-ylamino}-cyclohexanol], the IC50 was below 0.1 µM against IRAK4, above 5 µM in test [1] and 1 to 5 µM in test [2].
As to `Cn1cc(-c2cccc(-c3ncc(-c4cnn(C)c4)c(N[C@H]4CCC[C@H](F)[C@H]4O)n3)c2)cn1` (single isomer, unassigned) [Example 285], the IC50 on IRAK4 was below 0.1 µM; in test [1] it was 0.1 to 1 µM; in test [2], 0.1 to 1 µM.
In the case of `Cn1cc(-c2cccc(-c3ncc(-c4cnn(C)c4)c(N[C@@H]4CCC[C@@H](F)[C@@H]4O)n3)c2)cn1` (single isomer, unassigned) [Example 286], the IC50 against IRAK4 was below 0.1 µM; in test [1] it was 0.1 to 1 µM; in test [2] it was 0.1 to 1 µM.
Consider `Cn1cc(-c2cccc(-c3ncc(-c4cnn(C)c4)c(N[C@H]4CCCC[C@@H](O)[C@H]4O)n3)c2)cn1` (stereo in doubt) [Example 248], for which the IC50 against IRAK4 is below 0.1 µM; in test [1], 0.1 to 1 µM; in test [2], 0.1 to 1 µM.
As to `Cn1cc(-c2cccc(-c3ccc(-c4cnn(C5CCNCC5)c4)cn3)c2)cn1` [Example 1, 2-[3-(1-Methyl-1H-pyrazol-4-yl)-phenyl]-5-(1-piperidin-4-yl-1H-pyrazol-4-yl)-pyridine Hydrochloride], the IC50 against IRAK4 was 0.1 to 1 µM; in test [1], above 5 µM; in test [2] it was 1 to 5 µM.
Turning to `Cn1cc(-c2cccc(-c3ncc(-c4ccn(C)n4)c(O[C@@H]4CCC[C@@H](N)[C@@H]4O)n3)c2)cn1` [Example 132], the IC50 in test [1] and in test [2] was 0.1 to 1 µM in each case.
In the case of `Cc1nnc(-c2cnc(-c3cccc(-c4cnn(C)c4)c3)nc2NC2CCN(S(C)(=O)=O)CC2)s1` [Example 151], the IC50 in test [1] and in test [2] was 0.1 to 1 µM in each case.
As to `Cn1cc(-c2cccc(-c3ncc(-c4cnn(C)c4)c(N[C@H]4CCN(S(C)(=O)=O)C4)n3)c2)cn1` [Example 170], the IC50 in test [1] was in the range of 0.1 to 1 µM; in test [2], 1 to 5 µM.
As to `Cn1cc(-c2cccc(-c3ncc(-c4cnn(C)c4)c(NCC4(F)CCN(S(C)(=O)=O)CC4)n3)c2)cn1` [Example 236], the IC50 was 0.1 to 1 µM against IRAK4 and 1 to 5 µM in test [1].
Take `CC(=O)N1CCC(F)(CNc2nc(-c3cccc(-c4cnn(C)c4)c3)ncc2-c2cnn(C)c2)CC1` [Example 237]: the IC50 was 0.1 to 1 µM against IRAK4 and 1 to 5 µM in test [1].
With `Cn1cc(-c2cccc(-c3ncc(-c4cnn(C)c4)c(NCC4(O)CCNCC4)n3)c2)cn1` [Example 240], the IC50 was 0.1 to 1 µM against IRAK4 and above 5 µM in test [1].
`Cn1cc(-c2cccc(-c3ncc(-c4cnn(C)c4)c(N4CC[C@@H](N)C4)n3)c2)cn1` [Example 241]: the results for the IC50 (against IRAK4; in test [1]) were 0.1 to 1 µM and 1 to 5 µM, respectively.
For `CC(=O)N[C@@H]1CCN(c2nc(-c3cccc(-c4cnn(C)c4)c3)ncc2-c2cnn(C)c2)C1` [Example 246] the same measures were 1 to 5 µM and above 5 µM.
For `Cn1cc(-c2cccc(-c3ncc(-c4cnn(C)c4)c(N4CC[C@@H](NS(C)(=O)=O)C4)n3)c2)cn1` [Example 247] the same measures were 0.1 to 1 µM and 1 to 5 µM.
With `Cn1cc(-c2cccc(-c3ncc(-c4cnn(C)c4)c(NCC4(O)CCN(S(C)(=O)=O)CC4)n3)c2)cn1` [Example 249], the values for the IC50 (against IRAK4; in test [1]) were 0.1 to 1 µM and 1 to 5 µM, respectively.
For `Cn1cc(-c2cccc(-c3ncc(-c4cnn(C)c4)c(N4CCC(NS(C)(=O)=O)CC4)n3)c2)cn1` [Example 250] the same measures were 0.1 to 1 µM and 1 to 5 µM.
With `Cn1cc(-c2cccc(-c3ncc(-c4cnn(C)c4)c(NCCC4CCCCN4)n3)c2)cn1` (stereo not drawn) [Example 251], the IC50 on IRAK4 is 1 to 5 µM; in test [1], above 5 µM.
With `Cn1cc(-c2cccc(-c3ncc(-c4cnn(C)c4)c(NCC4(N)CCCCC4)n3)c2)cn1` [Example 252], the IC50 is below 0.1 µM on IRAK4 and 0.1 to 1 µM in test [1].
For `CC(=O)N1CCC(Nc2nc(-c3cccc(-c4cnn(C)c4)c3)ncc2-c2cnn(C)c2)CC1` [Example 255], the IC50 (on IRAK4; in test [1]) was 0.1 to 1 µM in each case.
Turning to `CC(=O)N1CCCCC1CCNc1nc(-c2cccc(-c3cnn(C)c3)c2)ncc1-c1cnn(C)c1` (stereo not drawn) [Example 258], the IC50 was 0.1 to 1 µM on IRAK4 and above 5 µM in test [1].
As to `Cn1cc(-c2cccc(-c3ncc(-c4cnn(C)c4)c(NCCC4CCCCN4S(C)(=O)=O)n3)c2)cn1` (stereo not drawn) [Example 259], the IC50 against IRAK4 is 0.1 to 1 µM; in test [1], above 5 µM.
Consider `Cn1cc(-c2cccc(-c3ncc(-c4cnn(C)c4)c(N4CCC(CO)C4)n3)c2)cn1` (stereo not drawn) [Example 261], for which the IC50 on IRAK4 is 0.1 to 1 µM; in test [1] it was 1 to 5 µM.
`Cn1cc(-c2cccc(-c3ncc(-c4cnn(C)c4)c(N[C@H]4CC[C@@H](N5CCOCC5)CC4)n3)c2)cn1` [Example 263]: the figures for the IC50 (on IRAK4; in test [1]) were 1 to 5 µM and above 5 µM, respectively.
Consider `Cn1cc(-c2cccc(-c3ncc(-c4cnn(C)c4)c(N4CCC(CN)C4)n3)c2)cn1` (stereo not drawn) [Example 264], for which the IC50 against IRAK4 is 1 to 5 µM; in test [1], above 5 µM.
For `CC(Nc1nc(-c2cccc(-c3cnn(C)c3)c2)ncc1-c1cnn(C)c1)C1CCN(S(C)(=O)=O)CC1` (stereo not drawn) [Example 274] the same measures were 0.1 to 1 µM and above 5 µM.
The like results for `CC(=O)N1CCC(O)(CNc2nc(-c3cccc(-c4cnn(C)c4)c3)ncc2-c2cnn(C)c2)CC1` [Example 277] were, in that order, 0.1 to 1 µM and above 5 µM.
